Laboratory results from article PMC8975272, “Novel glucagon-like peptide-1 analogue exhibits potency-driven G-protein biased agonism with promising effects on diabetes and diabetic dry eye syndrome” (Bioengineered, 2022).

Key:
mouse pancreatic islets = assay: Static acute insulin secretion, mouse islets; type: cell-based
Description: Mice were euthanized by cervical dislocation and pancreatic islets isolated by collagenase digestion as previously described and cultured in RPMI 1640 medium, 11 mM glucose, supplemented with 10% (v/v) FBS plus penicillin (100 units/mL), and streptomycin (0.1 mg/mL) at 37°C in an atmosphere of humidified air (95%) and CO2 (5%).
Mouse islets (10/well) were incubated in triplicate for each condition and treatment. […] The secretion medium was then collected to measure the insulin and proinsulin concentrations using an insulin HTRF kit (Cisbio Bioassays). INS-1 832/3 cells were treated with the indicated concentrations of SM102 or Semaglutide for 16 h in complete RPMI1640 medium at 11 mM glucose. A sample of supernatant was collected and analyzed for insulin content by HTRF.

diabetic DES mice = assay: Chronic administration study in diabetic DES mice; type: in vivo, mouse; settings: for increase in number of conjunctival goblet cells vs control mice: PAS staining
Description: DES in db/db mice was induced by twice daily administration of 5 μL of 0.2% benzalkonium chloride (Sigma-Aldrich) for 7 days. All diabetic DES mice were divided into vehicle group, SM102 treatment groups (1, 3 and 9 nmol/kg), Semaglutide treatment group (15 nmol/kg), and dulaglutide (1.5 nmol/kg) (n = 8 per group; 4 male, 4 female). The drugs were injected subcutaneously into the neck region of the animals on every other day for 4 weeks.
The mouse’s lower eyelid was gently pulled downward, and a line with a 1 mm length of the phenol red cotton thread was placed on the upper part of the palpebral conjunctiva for 15 seconds near the inner part about one-third of the distance from the outer corner of the eyelid. The length of the colored part of the phenol red thread was recorded as the tear secretion. 1 μL of 0.1% liquid fluorescein sodium was instilled into the conjunctival sac followed by three blinks, and tear breakup time (BUT) was recorded in seconds.
[…] The levels of interleukin-6 (IL-6), interleukin-1β (IL-1β), tumor necrosis factor-α (TNF-α), transforming growth factor β1 (TGF-β1) and malondialdehyde (MDA) as well as superoxide dismutase (SOD) activity in the supernatant were measured using appropriate ELISA kits brought from R&D company (USA). The expression levels of p38/p-p38, JNK/pJNK and ERK/p-ERK were analyzed by Western blot methods as previously reported.
Hematoxylin and eosin (H&E) staining were performed as described below: Corneas were fixed in 4% formalin. After dehydration, the specimens were embedded in paraffin and serial sections of 6 μm thickness were cut and stained with a hematoxylin-eosin reagent. Periodic Acid–Schiff (PAS) staining were performed as described below: Conjunctiva was fixed in 4% formalin. After dehydration, the specimens were embedded in paraffin and serial sections of 6 μm thickness were cut and stained with 0.5% PAS staining. The number of positively stained cup-shaped cells in the stained conjunctival sections was counted using image-Pro Plus6.0 (MediaCybernetics, USA).

GLP-1R [1] = molecular target: T1, GLP-1R (Homo sapiens, UniProt P43220); assay: cAMP accumulation (HTRF); type: cell-based; parameters: expressed in transfected cells
T1 sequence (P43220 24-463): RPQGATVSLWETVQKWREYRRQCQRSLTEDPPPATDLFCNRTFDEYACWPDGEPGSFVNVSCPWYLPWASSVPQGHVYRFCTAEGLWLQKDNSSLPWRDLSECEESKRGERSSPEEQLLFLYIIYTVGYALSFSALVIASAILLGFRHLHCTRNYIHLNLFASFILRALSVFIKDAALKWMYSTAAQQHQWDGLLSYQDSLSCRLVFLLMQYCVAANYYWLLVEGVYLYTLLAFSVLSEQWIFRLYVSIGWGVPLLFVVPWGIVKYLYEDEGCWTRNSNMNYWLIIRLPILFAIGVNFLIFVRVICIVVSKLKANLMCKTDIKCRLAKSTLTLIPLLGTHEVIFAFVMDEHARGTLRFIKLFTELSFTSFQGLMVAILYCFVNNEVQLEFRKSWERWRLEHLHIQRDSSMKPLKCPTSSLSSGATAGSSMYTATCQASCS
Description: HEK293 cells stably expressing human GLP-1R (hGLP-1 R) (generated in-house using HEK293 cell line purchased from ATCC, Cat# CRL-1573) were maintained in Dulbecco’s Modified Eagle Medium (DMEM, Gibco, 11,054,020) with 10% fetal bovine serum (FBS, Gibco, 10,099,133 C), 1% penicillin/streptomycin (Gibco, 10,378,016) and 1 mg/mL G418 (Gibco, 10,131,035). Wild-type INS-1 832/3 cells, or INS-1 832/3 cells lacking endogenous GLP-1 R (generated in-house using INS-1 832/3 cell line purchased from NTCC, Cat# CVCL_ZL55) were maintained in RPMI-1640 (Gibco, 22,400,071) with 1 mM sodium pyruvate (Gibco, 11,360,070), 50 μM β-mercaptoethanol (Gibco, 21,985,023), 10% FBS, and 1% penicillin/streptomycin. PathHunter CHO-K1-βarr2-EAGLP1R cells (DiscoverX) were maintained in F12 medium (Gibco, 11,320,033) with 10% FBS, 1% penicillin/streptomycin, 1 mg/mL G418 and 250 μg/mL hygromycin (Gibco, 10,687,010).
HEK293 stably expressing hGLP-1 R cells were stimulated with agonist for 30 min at 37°C in serum-free medium (Gibco, 12,753,018). cAMP was determined at the end of the incubation period by homogenous time resolved fluorescence (HTRF; cAMP Dynamic 2 kit, Cisbio) using a Molecular Devices iD5 plate reader.

GLP-1R [2] = molecular target: T1, GLP-1R; assay: GLP-1R endocytosis, high content imaging; type: cell-based; parameters: expressed in transfected cells; settings: no clear difference in kinetics between the two ligands
[3] = all 3 doses of SM102, Western blot, p < 0.05
[4] = corneal homogenates, 4 weeks, ELISA

## CC[C@H](C)[C@H](NC(=O)[C@H](Cc1ccccc1)NC(=O)[C@H](CCC(=O)O)NC(=O)[C@H](CCCCNC(=O)COCCOCCNC(=O)C(C)(C)NC(=O)CC[C@H](NC(=O)CCCCCCCCCCCCCCCCC(=O)O)C(=O)O)NC(=O)[C@H](C)NC(=O)[C@H](C)NC(=O)[C@H](CCC(N)=O)NC(=O)CNC(=O)[C@H](CCC(=O)O)NC(=O)[C@H](CC(C)C)NC(=O)[C@H](Cc1ccc(O)cc1)NC(=O)[C@H](CO)NC(=O)[C@H](CO)NC(=O)[C@@H](NC(=O)[C@H](CC(=O)O)NC(=O)[C@H](CO)NC(=O)[C@@H](NC(=O)[C@H](Cc1ccccc1)NC(=O)[C@@H](NC(=O)CNC(=O)[C@H](CCC(=O)O)NC(=O)C(C)(C)NC(=O)[C@@H](N)Cc1c[nH]cn1)[C@@H](C)O)[C@@H](C)O)C(C)C)C(=O)N[C@@H](C)C(=O)N[C@@H](Cc1c[nH]c2ccccc12)C(=O)N[C@@H](CC(C)C)C(=O)N[C@H](C(=O)N[C@@H](CCCNC(=N)N)C(=O)NCC(=O)N[C@@H](CCCNC(=N)N)C(=O)NCC(=O)N[C@@H](CC(C)C)C(N)=O)C(C)C [SM102]
Mouse pancreatic islets; 1 and 10 nM, data not shown
  glucose-stimulated insulin secretion, SM102 vs Semaglutide, lower doses: differences were not apparent
Mouse pancreatic islets; islets from C57BL/6 mice, 11 mM glucose, 100 nM agonist, 30 min, no difference between agonists
  glucose-stimulated insulin secretion (GSIS): potentiation of GSIS
Diabetic DES mice; 4-week treatment
  breakup time of tear film: significantly prolonged
Diabetic DES mice; 4 weeks of treatment, phenol red cotton thread
  tear secretion level vs control group: significantly enhanced
Diabetic DES mice; SM102 1 nmol/kg, 4 weeks
  increase in number of conjunctival goblet cells vs control mice: approximately 1 fold
Diabetic DES mice; SM102 3 nmol/kg, 4 weeks
  increase in number of conjunctival goblet cells vs control mice: ~4 fold
Diabetic DES mice; SM102 9 nmol/kg, 4 weeks
  tear secretion level vs Semaglutide or dulaglutide: significantly higher
  increase in number of conjunctival goblet cells vs control mice: ~5 fold
Diabetic DES mice; [3]
  phosphorylation level of ERK vs model group: significantly lower
  phosphorylation level of JNK vs model group: significantly lower
  phosphorylation level of p38 vs model group: significantly lower
Diabetic DES mice; corneal homogenate, 4 weeks, ELISA
  concentration of MDA vs vehicle group: significantly decreased
Diabetic DES mice; [4]
  level of IL-1β vs control mice: significantly reduced
  level of IL-6 vs control mice: significantly reduced
  level of TGF-β1 vs control mice: increased
  level of TNF-α vs control mice: significantly reduced
Diabetic DES mice; dose range 1 ~ 9 nmol/kg, 4 weeks
  SOD activity: dose-dependent significant increase
Diabetic DES mice; medium and high dose SM102, 4 weeks
  corneal tissue damage (H&E staining): significantly reversed corneal tissue damage
GLP-1R [1]; compared to Semaglutide, agonist 30 min at 37°C, serum-free medium, HTRF, n = 5
  cAMP signaling potency: signaling potency was increased
GLP-1R [1]; subtracted pEC50 estimates, SM102 vs Semaglutide, one-way ANOVA with Tukey's test
  signaling selectivity in favor of cAMP compared to endocytosis and β-arrestin-2 recruitment: significant signaling selectivity in favor of cAMP
GLP-1R [2]
  GLP-1 R endocytosis: rapid GLP-1 R endocytosis
